Measured values as given in patent US20260231947A1, “IMPROVED BIOCIDE COMPOSITIONS” (Solugen, Inc., priority 2021, published 2026).
Values after ≈ are worked out from the molar mass of the structure shown. Like-named read-outs stand apart in the source and are kept apart here.

Key:
[1] = test system: General Wild Strain Bacteria; assay: MIC, Example 2, TTPC and bleach; format: cell-based
Description: The biocides used were tributyl tetradecyl phosphonium chloride (TTPC, BELLACIDE 350) and household bleach.

Escherichia coli = assay: MIC, Example 3, quaternary ammonium biocides
Description: (§3) The ability of an IBF to inhibit microorganisms was investigated. The biocides used as components of the IBF were quaternary ammonium compounds. […] The bacterial strains tested were Pseudomonas aeruginosa, Staphylococcus aureus, Escherichia coli and Klebsiella pneumoniae.

Pseudomonas aeruginosa = assay: MIC, Example 3, quaternary ammonium biocides
Description: as §3

[2] = test system: Wild Strain General Bacteria; assay: MIC, microtiter plate, general aerobic bacteria from produced water; format: cell-based, Pseudomonas aeruginosa and Enterobacter aggolomerans
Protocol: (§1) The ability of an BF to inhibit microorganisms was investigated. Specifically, three bacteria types were tested to compare the MIC of a biocide, a biochelant and IBFs of the present disclosure. The bacteria types utilized were isolated from produced water from the Marcellus shale formation, and identified as (i) general aerobic bacteria identified as Pseudomonas aeruginosa and Enterobacter aggolomerans (ii) Wild strain sulfate reducing bacteria and (iii) acid producing bacteria. General aerobic bacteria aid in the formation of biofilms. Most of these bacteria will be found either floating freely in water (planktonic organisms) or will be attached to various surfaces (sessile organisms). Wild strain Sulfate Reducing Bacteria and Acid Producing Bacteria isolated from the produced fluid was also used. Wild strain Sulfate Reducing Bacteria (WSRB) are the most common anaerobic organisms found in the oil and gas industry. WSRB are an issue as they will reduce sulfate into sulfides which can turn into hydrogen sulfide, souring the fluid in the oil and gas well.
(§2) The bacteria tested were placed in a microtiter plate, where a high throughput test was performed to determine MIC (minimum inhibitor concentration). […] The BE contained 1:1 biocide:biochelant each at 50 ppm.

Wild Strain APB = assay: MIC, microtiter plate, wild strain acid producing bacteria; format: cell-based
Protocol: as §1, §2

Klebsiella pneumoniae = assay: MIC, Example 3, quaternary ammonium biocides
Description: as §3

Staphylococcus aureus = assay: MIC, Example 3, quaternary ammonium biocides
Description: as §3

Wild Strain SRB = assay: MIC, microtiter plate, wild strain sulfate reducing bacteria; format: cell-based
Protocol: as §1, §2

[3] = test system: bacteria isolated from produced water from the Marcellus shale formation; assay: MIC, Example 1, maximum reduction over the three bacteria types; format: cell-based; conditions: biocide used in conjunction with biochelants, versus biocide alone
Protocol: as §1, §2

[4] = General Wild Strain Bacteria, read-out: MIC
[5] = Wild Strain General Bacteria, IBF 1:1 biocide:biochelant, read-out: MIC
[6] = Wild Strain APB, IBF 1:1 biocide:biochelant, read-out: MIC

Compound | MIC [1, 4] | MIC (Escherichia coli) | MIC (Pseudomonas aeruginosa) | MIC (Klebsiella pneumoniae) | MIC (Staphylococcus aureus) | MIC [2, 5] | MIC (Wild Strain APB; [6]) | maximum MIC reduction [3] | other results
CCCCCCCCCCCCCC[P+](CCCC)(CCCC)CCCC.[Cl-] [Bellacide 350 (TTPC), tributyl tetradecyl phosphonium chloride] | 500 µg/mL |  |  |  |  |  |  |  | MIC ([1]; General Wild Strain Bacteria, with biochelant, read-out: MIC of the biocide as a component of an IBF): 15.6 µg/mL
O=C(O)[C@H](O)[C@@H](O)[C@H](O)[C@H](O)CO [G050, gluconic acid] |  | 5000 µg/mL (≈ 25.5 mM) | 5000 µg/mL (≈ 25.5 mM) | 5000 µg/mL (≈ 25.5 mM) | 5000 µg/mL (≈ 25.5 mM) |  |  |  | MIC [2]: 10000 µg/mL (≈ 51 mM); MIC [1]: 10000 µg/mL (≈ 51 mM); MIC (Wild Strain APB): 625 µg/mL (≈ 3.19 mM); MIC (Wild Strain SRB): 312 µg/mL (≈ 1.59 mM)
O=C(O)[C@@H](O)[C@@H](O)[C@H](O)[C@@H](O)C(=O)O [GA50, glucaric acid] | 2500 µg/mL (≈ 11.9 mM) | 625 µg/mL (≈ 2.97 mM) | 1250 µg/mL (≈ 5.95 mM) | 1250 µg/mL (≈ 5.95 mM) | 5000 µg/mL (≈ 23.8 mM) | 2500 µg/mL (≈ 11.9 mM) | 625 µg/mL (≈ 2.97 mM) |  | 
tetrakis hydroxymethyl-phosphonium sulfate [75% THPS] |  |  |  |  |  |  |  | 97% | MIC ([2]; Wild Strain General Bacteria, IBF 1:1 biocide:biochelant): 1000 ppm; MIC (Wild Strain APB; Wild Strain APB, IBF 1:1 biocide:biochelant): 62.5 ppm; MIC (Wild Strain SRB; Wild Strain SRB, IBF 1:1 biocide:biochelant): 1000 ppm
O=[N+]([O-])C(Br)(CO)CO [10% BRONOPOL, 2-bromo-2-nitro-1,3-propanediol] |  |  |  |  |  | 125 µg/mL (≈ 0.625 mM) | 62.5 µg/mL (≈ 0.313 mM) | 98% | 
O=CCCCC=O [50% Glut, glutaraldehyde] |  |  |  |  |  | 1000 µg/mL (≈ 9.99 mM) | 500 µg/mL (≈ 4.99 mM) |  | 
